Laboratory results reported in US5126432A, “Calcium channel modulating substances” (Miles Inc., priority 1988, dated 1992).
“Also recorded” adds a separate entry of the source. Values belong to the compound of their own block, whether it stands above or below them.

Tests used:
calcium channel = settings: known from the art; cited from earlier work
[1] = tested on: dihydropyridine receptors; assay: stability of inhibitory activity to boiling and ashing; assay type: physicochemical; settings: 270° C. for 3 hours
From the text: This observed differential activity was further evidence of a specific interaction with the dihydropyridine binding site rather than the non-specific reduction of free ligand concentration.
When this fraction was chromatographed on either a Waters Protein Pak-125 or a TSK-250 gel filtration column using 40% acetonitrile in 0.1% TFA as the mobile phase, the activity (as determined in ligand binding assays described in Example 1c) eluted in a volume less than […] fragment (amino acids 61-63) having a molecular weight of 443.

[2] = dialysis: binding of free [3H]DHP ligand to the fractions; settings: 5 mg inside bag, 0.2 nM [3H]DHP, 25° C. overnight
Description: In order to further determine the specificity of action of a particular fraction (i.e., to insure that the fraction was acting competitively on the dihydropyridine receptor and not simply depleting the free ligand), a determination of the amount of free ligand was done by dialysis as follows.
A […] segment of Spectra-por 7 dialysis tubing (0.46 mL/cm) was washed thoroughly with water to remove EDTA and other chemicals. The molecular weight cut-off of this tubing was 1,000. Dialysis was performed in 16 mm glass tubes placed in a shaker incubator at 25° C. overnight. The volume inside the bag (made from closing the tubing by tying it) was 2.5 mL; the outside volume was 10 mL of 50 mM HEPES buffer, pH 7.0. Experiments were done with the [^3 H]DHP present both inside and outside the bag. The concentration of the [^3 H]DHP ligand used was always 0.2 nM. A control using 5 mg bovine serum albumin (BSA) inside the bag was carried out. […] The brain fractions tested were also 5 mg by weight. Dialysis was carried out in the presence of the cocktail of protease inhibitors described supra present both inside and outside the bag. The experiment was terminated by taking representative aliquots from inside and outside the bag (in triplicate). The cpm were then adjusted for total volume.

Compound: COC(=O)C1=C(C)NC(C)=C([N+](=O)[O-])C1c1ccccc1C(F)(F)F (stereo not drawn) [Bay K8644]
effect on calcium channel current (calcium channel): increases calcium channel current; also recorded: can produce inhibition depending on the precise membrane potential and channel state

Compound: [Cl-].[Na+] [NaCl]
activity after ashing [1]: maintained activity upon ashing

binding of [3H]DHP ligand in dialysis [2]: bind [^3 H]DHP ligand hydrophobically
Compound: bovine serum albumin: control in dialysis, 5 mg inside the bag
